Measured values reported in patent US10131652B2, “Pyrimidinyloxy benzene derivatives as herbicides” (E. I. DU PONT DE NEMOURS AND COMPANY, priority 2014, dated 2018).

Assays:
Assay type in all cases: in vivo
[1] = tested on: Italian ryegrass (Lolium multiflorum); experiment: Test B pre-/postemergence plant response
Procedure, shortened: (§1)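 Steps: plant seeds in loam soil–sand mix; spray soil preemergence, and in parallel spray 2–10 cm one- to two-leaf plants postemergence; hold ~10 days in greenhouse; visually rate injury against untreated controls (0 = no effect, 100 = complete control).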

[2] = tested on: barnyardgrass (Echinochloa crus-galli); experiment: Test B pre-/postemergence plant response
Procedure, shortened: as §1

[3] = tested on: corn (Zea mays); experiment: Test B pre-/postemergence plant response
Procedure, shortened: as §1

[4] = tested on: giant foxtail (Setaria faberii); experiment: Test B pre-/postemergence plant response
Procedure, shortened: as §1

[5] = tested on: kochia (Kochia scoparia); experiment: Test B pre-/postemergence plant response
Procedure, shortened: as §1

[6] = tested on: pigweed (Amaranthus retroflexus); experiment: Test B pre-/postemergence plant response
Procedure, shortened: as §1

[7] = tested on: ragweed (common ragweed, Ambrosia elatior); experiment: Test B pre-/postemergence plant response
Procedure, shortened: as §1

[8] = tested on: wheat (Triticum aestivum); experiment: Test B pre-/postemergence plant response
Procedure, shortened: as §1

[9] = tested on: blackgrass (Alopecurus myosuroides); experiment: Test B postemergence plant response
Procedure, shortened: (§2)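 Visual injury rating, 0–100 (0 = no effect, 100 = complete control), vs untreated controls ~10 days after postemergence spray; greenhouse; potted loam soil/sand; plants 2–10 cm, 1–2 leaf stage.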

[10] = tested on: galium (catchweed bedstraw, Galium aparine); experiment: Test B postemergence plant response
Procedure, shortened: as §2

[11] = tested on: barnyardgrass (Echinochloa crus-galli); experiment: Test C flooded paddy test plant response; conditions: Flood, 250 g ai/ha; scale of 0 to 100 where 0 is no effect and 100 is complete control; 13 to 15 days
Procedure, shortened: (§3)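 Flooded-pot format, 3 cm water over soil maintained for the test duration; test compounds dispensed into the water at the 2-leaf stage. Greenhouse holding 13 to 15 days. Plants evaluated visually relative to untreated controls, 0 meaning no effect and 100 complete control.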

[12] = tested on: ducksalad (Heteranthera limosa); experiment: Test C flooded paddy test plant response; conditions: Flood, 250 g ai/ha; scale of 0 to 100 where 0 is no effect and 100 is complete control; 13 to 15 days
Procedure, shortened: as §3

[13] = tested on: rice (Oryza sativa); experiment: Test C flooded paddy test plant response; conditions: Flood, 250 g ai/ha; scale of 0 to 100 where 0 is no effect and 100 is complete control; 13 to 15 days
Procedure, shortened: as §3

[14] = tested on: small-flower umbrella sedge (Cyperus difformis); experiment: Test C flooded paddy test plant response; conditions: Flood, 250 g ai/ha; scale of 0 to 100 where 0 is no effect and 100 is complete control; 13 to 15 days
Procedure, shortened: as §3

[15] = 125 g ai/ha, postemergence, 0 to 100 scale, 0 no effect, 100 complete control
[16] = Postemergence, 500 g ai/ha, 0 to 100 scale (0 no effect, 100 complete control)
[17] = Preemergence, 125 g ai/ha, 0 to 100 scale (0 no effect, 100 complete control)
[18] = Preemergence, 500 g ai/ha, 0 to 100 scale where 0 is no effect and 100 is complete control
[19] = Postemergence, 1000 g ai/ha, 0 to 100 scale (0 no effect, 100 complete control)
[20] = Preemergence, 1000 g ai/ha, 0 to 100 scale (0 no effect, 100 complete control)
[21] = 31 g ai/ha, Preemergence, 0 to 100 scale where 0 is no effect and 100 is complete control
[22] = Postemergence, 31 g ai/ha, 0 to 100 scale (0 no effect, 100 complete control)

Row | Compound | Plant response rating, Ryegrass, Italian [1, 15] | Ryegrass, Italian plant response rating [1, 17] | Plant response rating, Barnyardgrass [2, 15] | Barnyardgrass plant response rating [2, 17] | Plant response rating, Corn [3, 15] | Plant response rating, Foxtail, Giant [4, 15] | Foxtail, Giant plant response rating [4, 17] | Plant response rating, Kochia [5, 15] | Kochia plant response rating [5, 17] | Plant response rating, Pigweed [6, 15] | Pigweed plant response rating [6, 17] | Plant response rating, Ragweed [7, 15] | Ragweed plant response rating [7, 17] | Plant response rating, Wheat [8, 15] | Plant response rating, Blackgrass [9, 15] | Plant response rating, Galium [10, 15] | Barnyardgrass plant response rating [11] | Ducksalad plant response rating [12] | Rice plant response rating [13] | Sedge, Umbrella plant response rating [14] | other results
1 | FC(F)c1cc(-c2ccccc2Oc2ncc(Cl)cn2)ncn1 [Compound 184] | 0 | 0 | 0 | 10 | 10 | 10 | 20 | 70 | 20 | 90 | 80 | 20 | 0 | 0 | 10 | 70 | 0 | 0 | 0 | 0 | Plant response rating, Ryegrass, Italian [1, 16]: 20; Plant response rating, Ryegrass, Italian [1, 18]: 10; Plant response rating, Barnyardgrass [2, 16]: 50; Plant response rating, Barnyardgrass [2, 18]: 90; Plant response rating, Corn [3, 16]: 20; Plant response rating, Foxtail, Giant [4, 16]: 70; Plant response rating, Foxtail, Giant [4, 18]: 90; Plant response rating, Kochia [5, 16]: 100; Plant response rating, Kochia [5, 18]: 100; Plant response rating, Pigweed [6, 16]: 100; Plant response rating, Pigweed [6, 18]: 100; Plant response rating, Ragweed [7, 16]: 40; Plant response rating, Ragweed [7, 18]: 50; Plant response rating, Wheat [8, 16]: 10; Plant response rating, Blackgrass [9, 16]: 60; Plant response rating, Galium [10, 16]: 100
2 | Clc1cnc(Oc2ccccc2-c2ccc(Cl)nn2)nc1 [Compound 186] |  |  |  |  |  |  |  |  |  |  |  |  |  |  |  |  | 0 | 0 | 0 | 0 | Plant response rating, Ryegrass, Italian [1, 19]: 0; Plant response rating, Ryegrass, Italian [1, 20]: 0; Plant response rating, Barnyardgrass [2, 19]: 0; Plant response rating, Barnyardgrass [2, 20]: 20; Plant response rating, Corn [3, 19]: 0; Plant response rating, Foxtail, Giant [4, 19]: 30; Plant response rating, Foxtail, Giant [4, 20]: 100; Plant response rating, Kochia [5, 19]: 30; Plant response rating, Kochia [5, 20]: 100; Plant response rating, Pigweed [6, 19]: 20; Plant response rating, Pigweed [6, 20]: 100; Plant response rating, Ragweed [7, 19]: 50; Plant response rating, Ragweed [7, 20]: 70; Plant response rating, Wheat [8, 19]: 0; Plant response rating, Blackgrass [9, 19]: 20; Plant response rating, Galium [10, 19]: 20
3 | Cc1ccnc(-c2ccccc2Oc2ncc(Cl)cn2)c1 [Compound 187] | 0 | 0 | 0 | 0 | 0 | 0 | 0 | 0 | 0 | 0 | 0 | 0 | 0 | 0 | 0 | 0 | 0 | 50 | 0 | 0 | Plant response rating, Ryegrass, Italian [1, 21]: 0; Plant response rating, Ryegrass, Italian [1, 22]: 0; Plant response rating, Barnyardgrass [2, 21]: 0; Plant response rating, Barnyardgrass [2, 22]: 0; Plant response rating, Corn [3, 22]: 0; Plant response rating, Foxtail, Giant [4, 21]: 0; Plant response rating, Foxtail, Giant [4, 22]: 0; Plant response rating, Kochia [5, 21]: 0; Plant response rating, Kochia [5, 22]: 0; Plant response rating, Pigweed [6, 21]: 0; Plant response rating, Pigweed [6, 22]: 0; Plant response rating, Ragweed [7, 21]: 0; Plant response rating, Ragweed [7, 22]: 0; Plant response rating, Wheat [8, 22]: 0; Plant response rating, Blackgrass [9, 22]: 0; Plant response rating, Galium [10, 22]: 0
4 | N#Cc1ccnc(-c2ccccc2Oc2ncc(Cl)cn2)c1 [Compound 188] | 0 | 0 | 20 | 20 | 30 | 20 | 40 | 90 | 30 | 60 | 100 | 20 | 0 | 20 | 20 | 50 | 0 | 30 | 0 | 0 | Plant response rating, Ryegrass, Italian [1, 21]: 0; Plant response rating, Ryegrass, Italian [1, 22]: 0; Plant response rating, Barnyardgrass [2, 21]: 0; Plant response rating, Barnyardgrass [2, 22]: 0; Plant response rating, Corn [3, 22]: 0; Plant response rating, Foxtail, Giant [4, 21]: 0; Plant response rating, Foxtail, Giant [4, 22]: 0; Plant response rating, Kochia [5, 21]: 0; Plant response rating, Kochia [5, 22]: 0; Plant response rating, Pigweed [6, 21]: 0; Plant response rating, Pigweed [6, 22]: 0; Plant response rating, Ragweed [7, 21]: 0; Plant response rating, Ragweed [7, 22]: 0; Plant response rating, Wheat [8, 22]: 0; Plant response rating, Blackgrass [9, 22]: 0; Plant response rating, Galium [10, 22]: 0
